Test system: 598228-144-R-J1-PDC complex spheroids, viability
Assay: Anticancer human tumor 598228-144-R-J1-PDC patient-derived serous endometrial adenocarcinoma cell line growth inhibition [CLK]
Conditions: for IC50: curve of first compound; for viability, T/C: stronger effect = lower value
Summary of the method: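 Patient-derived tumor cells grown as complex spheroids with HUVEC endothelial cells and mesenchymal stem cells, treated with drug combinations. Concentrations descend in half-log steps from near clinical Cmax, or from 10 microM if Cmax unknown.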

[1] = second compound 0.0316 µM, first compound 0.0316 µM
[2] = second compound 0.0316 µM, first compound 0.1 µM
[3] = second compound 0.0316 µM, first compound 0.316 µM
[4] = second compound 0.0316 µM, first compound 1 µM
[5] = second compound 0.0316 µM, first compound 3.16 µM
[6] = second compound 0.0316 µM, first compound 10 µM
[7] = second compound 0.1 µM, first compound 0.0316 µM
[8] = second compound 0.1 µM, first compound 0.1 µM
[9] = second compound 0.1 µM, first compound 0.316 µM
[10] = second compound 0.1 µM, first compound 1 µM
[11] = second compound 0.1 µM, first compound 3.16 µM
[12] = second compound 0.1 µM, first compound 10 µM
[13] = second compound 0.316 µM, first compound 0.0316 µM
[14] = second compound 0.316 µM, first compound 0.1 µM
[15] = second compound 0.316 µM, first compound 0.316 µM
[16] = second compound 0.316 µM, first compound 1 µM
[17] = second compound 0.316 µM, first compound 3.16 µM
[18] = second compound 0.316 µM, first compound 10 µM
[19] = second compound 1 µM, first compound 0.0316 µM
[20] = second compound 1 µM, first compound 0.1 µM
[21] = second compound 1 µM, first compound 0.316 µM
[22] = second compound 1 µM, first compound 1 µM
[23] = second compound 1 µM, first compound 3.16 µM
[24] = second compound 1 µM, first compound 10 µM
[25] = second compound 3.16 µM, first compound 0.0316 µM
[26] = second compound 3.16 µM, first compound 0.1 µM
[27] = second compound 3.16 µM, first compound 0.316 µM
[28] = second compound 3.16 µM, first compound 1 µM
[29] = second compound 3.16 µM, first compound 3.16 µM
[30] = second compound 3.16 µM, first compound 10 µM
[31] = second compound 10 µM, first compound 0.0316 µM
[32] = second compound 10 µM, first compound 0.1 µM
[33] = second compound 10 µM, first compound 0.316 µM
[34] = second compound 10 µM, first compound 1 µM
[35] = second compound 10 µM, first compound 3.16 µM
[36] = second compound 10 µM, first compound 10 µM
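Further: spheroids exposed to compounds for seven days before readout.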
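Wherever viability, T/C is given: 100% = DMSO vehicle control wells.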

## COc1ccc([C@@H](O)c2cc(-c3ncnc4cc(N5CCOCC5)ccc34)c(F)cc2Cl)nn1 + CNC(=O)c1ccc(Nc2nc(OC3CCCC3)c3c(-c4ccc5nc(C)oc5c4)c[nH]c3n2)c(OC)c1
Second compound 0.0316 µM
  IC50: 6490 nM
Second compound 0.1 µM
  IC50: 5470 nM
Second compound 0.316 µM
  IC50: 4050 nM
Second compound 1 µM
  IC50: 3670 nM
Second compound 3.16 µM
  IC50: 3710 nM
Second compound 10 µM
  IC50: 2270 nM
[1]
  viability, T/C: 120%
[2]
  viability, T/C: 109%
[3]
  viability, T/C: 99%
[4]
  viability, T/C: 94.9%
[5]
  viability, T/C: 61.8%
[6]
  viability, T/C: 41.3%
[7]
  viability, T/C: 116%
[8]
  viability, T/C: 109%
[9]
  viability, T/C: 87.7%
[10]
  viability, T/C: 90.1%
[11]
  viability, T/C: 67.5%
[12]
  viability, T/C: 32.1%
[13]
  viability, T/C: 99.4%
[14]
  viability, T/C: 102%
[15]
  viability, T/C: 75.5%
[16]
  viability, T/C: 84.6%
[17]
  viability, T/C: 51.9%
[18]
  viability, T/C: 29.7%
[19]
  viability, T/C: 95.2%
[20]
  viability, T/C: 102%
[21]
  viability, T/C: 77%
[22]
  viability, T/C: 78.3%
[23]
  viability, T/C: 52.5%
[24]
  viability, T/C: 25.3%
[25]
  viability, T/C: 94.3%
[26]
  viability, T/C: 74.7%
[27]
  viability, T/C: 90%
[28]
  viability, T/C: 75.1%
[29]
  viability, T/C: 53.9%
[30]
  viability, T/C: 27.4%
[31]
  viability, T/C: 88.9%
[32]
  viability, T/C: 90.9%
[33]
  viability, T/C: 81.7%
[34]
  viability, T/C: 77.5%
[35]
  viability, T/C: 38.9%
[36]
  viability, T/C: 28.9%

## COc1cccc2c1C(=O)c1c(O)c3c(c(O)c1C2=O)CC(O)(C(=O)CO)CC3OC1CC(N)C(O)C(C)O1 (centres undefined) + CNC(=O)c1ccc(Nc2nc(OC3CCCC3)c3c(-c4ccc5nc(C)oc5c4)c[nH]c3n2)c(OC)c1
Second compound 0.0316 µM
  IC50: 247 nM
Second compound 0.1 µM
  IC50: 254 nM
Second compound 0.316 µM
  IC50: 227 nM
Second compound 1 µM
  IC50: 162 nM
Second compound 3.16 µM
  IC50: 101 nM
Second compound 10 µM
  IC50: 105 nM
[1]
  viability, T/C: 102%
[2]
  viability, T/C: 83.6%
[3]
  viability, T/C: 40.4%
[4]
  viability, T/C: 11.3%
[5]
  viability, T/C: 0.76%
[6]
  viability, T/C: 0.83%
[7]
  viability, T/C: 122%
[8]
  viability, T/C: 106%
[9]
  viability, T/C: 36.5%
[10]
  viability, T/C: 7.7%
[11]
  viability, T/C: 0.47%
[12]
  viability, T/C: 1.08%
[13]
  viability, T/C: 123%
[14]
  viability, T/C: 128%
[15]
  viability, T/C: 19.1%
[16]
  viability, T/C: 4.16%
[17]
  viability, T/C: 0.73%
[18]
  viability, T/C: 4.66%
[19]
  viability, T/C: 121%
[20]
  viability, T/C: 76.1%
[21]
  viability, T/C: 14.2%
[22]
  viability, T/C: 1.56%
[23]
  viability, T/C: 0.81%
[24]
  viability, T/C: 0.82%
[25]
  viability, T/C: 110%
[26]
  viability, T/C: 49.8%
[27]
  viability, T/C: 17.1%
[28]
  viability, T/C: 1.2%
[29]
  viability, T/C: 2.45%
[30]
  viability, T/C: 1.09%
[31]
  viability, T/C: 103%
[32]
  viability, T/C: 51.7%
[33]
  viability, T/C: 11.6%
[34]
  viability, T/C: 1.39%
[35]
  viability, T/C: 1.63%
[36]
  viability, T/C: 2.68%
